Experimental data published in ChEMBL document CHEMBL1177755, “Bioactive xanthones from the stems of Cratoxylum formosum ssp. pruniflorum” (J Nat Prod, 2010).
Active and inactive are the calls of the source. The calls are words filed in the database; no cut-off is given here.

Assays:
CV-1 [1] = experiment: Inhibition of RXRalpha transcriptional activity in african green monkey CV1 cells co-expressing with TREpal-tkCAT at 10 uM by reporter gene assay; assay type: cell-based; settings: Chlorocebus aethiops
CV-1 [2] = experiment: Inhibition of RXRalpha transcriptional activity in african green monkey CV1 cells co-expressing with TREpal-tkCAT by reporter gene assay; assay type: cell-based; settings: Chlorocebus aethiops

| Compound | Activity (CV-1 [1]) | Activity (CV-1 [2]) |
| --- | --- | --- |
| CC(C)=CCC/C(C)=C/Cc1c(O)c(O)cc2c(=O)c3c(O)c(CC=C(C)C)c(O)cc3oc12 | Active | – |
| COc1cc2oc3cc(O)c(O)c(C/C=C(\C)CCC=C(C)C)c3c(=O)c2c(O)c1C/C=C(\C)CCC=C(C)C | Active | – |
| COc1ccc(O)c2c(=O)c3cc(O)ccc3oc12 | Active | – |
| COc1cc2c(=O)c3c(O)cc(O)cc3oc2cc1O | Active | – |
| COc1cc2oc3cc(O)c(O)c(CCC(C)(C)O)c3c(=O)c2c(O)c1CC=C(C)C | Active | Dose-dependent effect |
| CC(C)=CCC/C(C)=C/Cc1c(O)c(CC=C(C)C)c(O)c2c(=O)c3cc(O)c(O)cc3oc12 | Active | – |
| CC(C)=CCc1c(O)c(CC=C(C)C)c2oc3cc(O)c(O)cc3c(=O)c2c1O | Active | – |
| COc1c(O)ccc2oc3cccc(O)c3c(=O)c12 | Active | Dose-dependent effect |
| COc1c(O)ccc2oc3c(O)ccc(O)c3c(=O)c12 | Active | Dose-dependent effect |
